Here are results for eight compounds from EP4715056A1, “BIO-BASED TRANS-ACONITATE, PREPARATION METHOD THEREFOR AND USE THEREOF” (Qingdao Institute of Bioenergy and Bioprocess Technology, …, priority 2023, dated 2024).

Structures can show the parent of a compound that is named as a salt. Bounds are passed on as bounds.

Common to all, as to assay type: physicochemical
Data set [1] can be described thus: Residual amounts of fat-soluble and water-soluble pigments (HPLC). The following applies: aconitate/citrate products, Table 4. Here is the method: 7. Residual amounts of fat-soluble pigments and water-soluble pigments: • a high-performance liquid chromatograph (HPLC) was used, and the instrument sensitivity and stability of the detector should comply with the provisions of GB/T 16631-2008. Chromatographic column: C18 column; injector: 10 µL micro-syringe; solvent: acetonitrile (HPLC grade); acquisition time: 15 min; mobile phase: 80% acetonitrile (HPLC grade) and 20% deionized water; injection volume: 1 µL; wavelength: 230 nm.
Test: the instrument was adjusted according to the above provisions. After the baseline was stable, 0.2 µL of the sample was injected using a micro-syringe, and the integrator or chromatographic workstation was started at the same time. A pigment concentration-integral area standard curve was established by testing the integral areas of pigments with different concentrations. When the pigment content was measured, the corresponding pigment integral area was automatically given by the instrument, and the pigment concentration was obtained by comparing with the standard curve. The ratio of the pigment concentration to the sample concentration is the pigment content.

Data set [2] in a line: Glass transition temperature (dynamic mechanical analyzer). As to conditions: PVC plastic with 35 parts plasticizer; -40 to 80°C, 3°C/min, 1 Hz. How it is done:
(§1) The aconitates and tributyl citrate prepared in the above examples and comparative examples were added as plasticizers to PVC resin to obtain PVC plastics. The PVC plastics include 100 parts of PVC resin, 35 parts of plasticizer, 2 parts of oxidized polyethylene wax, and 5 parts of octyltin maleate. The above raw materials were mixed and prepared using the same mixing process to obtain finished PVC products. The performance tests were performed on different plasticizers and the obtained PVC finished products in the above examples and comparative examples. […] Three points were selected for each group of samples, each point was tested once, and a median value was taken. • 2. […] Compatibility: tests were performed using a water value method. Since water molecules are polar, the compatibility between the plasticizer and water can characterize the compatibility between the plasticizer and polar materials (PVC, PLA, and nitrile rubber). When a certain plasticizer has good compatibility with water, it has good compatibility with PVC, and vice versa. In the experiment, 2.5 g of plasticizer and 25 g of acetone were added to a beaker, titrated with a burette filled with deionized water, and agitated while titrating until turbidity appears, and the volume of deionized water consumed was recorded. • 4. Glass transition temperature (Tg): the glass transition temperature was tested using a dynamic mechanical analyzer. Test conditions: nitrogen was taken as the carrier gas, at a test temperature range of -40 to 80°C, a heating rate of 3°C/min, and a frequency of 1 Hz.

Data set [3] can be described thus: Compatibility (water value method). As to conditions: 2.5 g plasticizer and 25 g acetone titrated with deionized water until turbidity; Table 5. How it is done:
as §1

Data set [4] is described as follows: Water content (Karl Fischer moisture meter). The following applies: aconitate/citrate products, Table 4. The source says:
6. Water content: a Karl Fischer moisture meter is used to test the water content (retained to two decimal places).

Data set [5] in a line: Chromaticity (platinum-cobalt colorimetry). The following applies: aconitate/citrate products, Table 4; colour comparison at 25°C. How it is done:
3. Chromaticity: preparation of 500# platinum-cobalt colorimetric standard stock solution: 1.2450 g of potassium chloroplatinate and 1.0000 g of cobalt chloride were weighed, with an accuracy of 0.0002 g, the mixture was dissolved in 100 mL of hydrochloric acid, and then diluted to 1000 mL with distilled water. This solution is just the 500# colorimetric standard comparison solution.
Preparation of colorimetric standards below 500#: different amounts of the 500# stock solution was prepared, and diluted with distilled water to the volume of a colorimetric tube to prepare colorimetric standard solutions of any number. The calculation formula is as follows: V = (N×V1)/500 [formula]
In the formula, V is the volume of the 500# standard stock solution taken to prepare the N# colorimetric standard solution, in mL; V1 is the volume of the colorimetric tube used, in mL; and N is the number of the colorimetric standard solution to be prepared.
Color comparison determination was performed at 25°C.

The nature of data set [6]: Tensile properties (GB/T 1040-2006): tensile modulus at 100%, elongation at break, elastic modulus. As to conditions: PVC plastic with 35 parts plasticizer; 50 mm/min, 25°C. How it is done: as §1
The nature of data set [7]: Acid value (KOH titration). The following applies: aconitate/citrate products, Table 4. Here is the method:
The aconitates and citrates prepared in the above examples and comparative examples were tested for acid value, purity, chromaticity, yield, triester conversion rate, and water content. […] The mixture was neutralized with 0.02 mol·L^-1 potassium hydroxide aqueous solution until a faint pink color appears, and the consumed volume Vo was recorded. 1 g of the sample (accurate to 0.01 g) was weighed using a ground-neck conical flask, then one portion of the above neutralized solution was added. After the sample was completely dissolved, the sample was titrated with 0.02 mol·L^-1 potassium hydroxide-ethanol standard titration solution (the titration should be completed within 30 seconds) until a faint pink color appeared and persisted for 5 seconds without fading, which was considered as an end point. The consumed volume V was recorded. […] Chromatographic column: C18 column; injector: 10 µL micro-syringe; solvent: acetonitrile (HPLC grade); acquisition time: 15 min; mobile phase: 80% acetonitrile (HPLC grade) and 20% deionized water; injection volume: 1 µL; wavelength: 230 nm.

Data set [8] in a line: Hardness (Shore hardness tester, GB/T 531-2008). As to conditions: PVC plastic: 100 parts PVC resin, 35 parts plasticizer, 2 parts oxidized polyethylene wax, 5 parts octyltin maleate. How it is done: as §1, with “The PVC plastics include 100 parts of PVC resin, 35 parts of plasticizer, 2 parts of oxidized polyethylene wax, and 5 parts of octyltin maleate.” left out

Turning to `CCCCOC(=O)C=C(CC(=O)OCCCC)C(=O)OCCCC` [Comparative Example 1, tributyl aconitate, reference compound], in data set [1], the “Residual amounts of fat-soluble pigments” value stood at 16424 ppm and the “Residual amounts of water-soluble pigments” value stood at 13861 ppm. The same compound yielded a Tg in data set [2] of 30.7 °C. The Compatibility in data set [3] is listed as 10.8 mL. Besides, the Water content in data set [4] came out at 0.03%. Moreover, the Chromaticity in data set [5] is listed as greater than 500 Pt-Co. In data set [6], the Elastic modulus was determined as 192.2 MPa, the Elongation at break is on record as 223.2% and the “Tensile modulus at 100%” value is on record as 17.9 MPa. This compound gave an Acid value in data set [7] of 0.05 KOH/g. In addition, the “Hardness/Shore D” value in data set [8] worked out at 46 Shore D.
In the case of `CCCCOC(=O)C=C(CC(=O)OCCCC)C(=O)OCCCC` [Comparative Example 2, tributyl aconitate, reference compound], in data set [1], the “Residual amounts of fat-soluble pigments” value is given as 2406 ppm and the “Residual amounts of water-soluble pigments” value is listed as 2248 ppm. This compound also came in with a Tg in data set [2] of 28.4 °C. In addition, the Compatibility in data set [3] is given as 12.5 mL. In data set [4], the Water content is listed as 0.05%. In data set [5], the Chromaticity is 120 Pt-Co. Moreover, in data set [6], the Elastic modulus was 187.3 MPa, the Elongation at break is listed as 231.4% and the “Tensile modulus at 100%” value worked out at 17.4 MPa. The same compound had an Acid value in data set [7] of 0.05 KOH/g. The “Hardness/Shore D” value in data set [8] came out at 45 Shore D.
For the compound `CCCCOC(=O)C=C(CC(=O)OCCCC)C(=O)OCCCC` [Comparative Example 3, tributyl aconitate, reference compound], in data set [1], the “Residual amounts of fat-soluble pigments” value was determined as 2864 ppm and the “Residual amounts of water-soluble pigments” value was 2698 ppm. The compound also returned a Tg in data set [2] of 28.7 °C. This compound also displayed a Compatibility in data set [3] of 12.5 mL. In data set [4], this compound came in with a Water content of 0.04%. Moreover, the Chromaticity in data set [5] is 150 Pt-Co. In data set [6], the Elastic modulus stood at 186.7 MPa, the Elongation at break stood at 233.6% and the “Tensile modulus at 100%” value was determined as 17.4 MPa. The same compound displayed an Acid value in data set [7] of 0.05 KOH/g. Also, in data set [8], the “Hardness/Shore D” value came to 45 Shore D.
On to `CCCCOC(=O)CC(O)(CC(=O)OCCCC)C(=O)OCCCC` [Comparative Example 4, tributyl citrate, reference compound], for which, in data set [1], the “Residual amounts of fat-soluble pigments” value is 3054 ppm and the “Residual amounts of water-soluble pigments” value is 2156 ppm. The Tg in data set [2] stood at 39.7 °C. Moreover, the Compatibility in data set [3] is given as 13.9 mL. Besides, the Water content in data set [4] is listed as 0.04%. The compound further had a Chromaticity in data set [5] of 150 Pt-Co. Further, in data set [6], the Elastic modulus was determined as 274.8 MPa, the Elongation at break was 201.3% and the “Tensile modulus at 100%” value came to 18.1 MPa. In data set [7], this compound displayed an Acid value of 0.05 KOH/g. In addition, the “Hardness/Shore D” value in data set [8] was 51 Shore D.
Take `CCCCOC(=O)CC(O)(CC(=O)OCCCC)C(=O)OCCCC` [Comparative Example 5, tributyl citrate, reference compound]: in data set [1], the “Residual amounts of fat-soluble pigments” value turned out to be 852 ppm and the “Residual amounts of water-soluble pigments” value worked out at 653 ppm. This compound also returned a Tg in data set [2] of 37.8 °C. Moreover, the Compatibility in data set [3] is 14.3 mL. For the same compound, the Water content in data set [4] was 0.03%. Also, in data set [5], the Chromaticity came to 50 Pt-Co. For the same compound, in data set [6], the Elastic modulus stood at 226.4 MPa, the Elongation at break was 213.4% and the “Tensile modulus at 100%” value is 17.6 MPa. For the same compound, in data set [7], the Acid value stood at 0.05 KOH/g. In addition, the “Hardness/Shore D” value in data set [8] is 48 Shore D.
Turning to `CCCCOC(=O)C=C(CC(=O)OCCCC)C(=O)OCCCC` [Example 19, tributyl aconitate], in data set [1], the “Residual amounts of fat-soluble pigments” value is given as 431 ppm and the “Residual amounts of water-soluble pigments” value was found to be 405 ppm. Also, in data set [2], the Tg amounted to 27.6 °C. The Compatibility in data set [3] is on record as 16.7 mL. In data set [4], this compound showed a Water content of 0.03%. This compound displayed a Chromaticity in data set [5] of 30 Pt-Co. Also, in data set [6], the Elastic modulus was 74.6 MPa, the Elongation at break was 260.1% and the “Tensile modulus at 100%” value was 14.6 MPa. This compound returned an Acid value in data set [7] of 0.05 KOH/g. Moreover, in data set [8], the “Hardness/Shore D” value is on record as 41 Shore D.
As to `CCCCC(CC)COC(=O)C=C(CC(=O)OCC(CC)CCCC)C(=O)OCC(CC)CCCC` (stereo not shown) [Example 20, tri(2-ethylhexyl) aconitate], in data set [1], the “Residual amounts of fat-soluble pigments” value is on record as 634 ppm and the “Residual amounts of water-soluble pigments” value is 610 ppm. This compound also came in with a Tg in data set [2] of 42.5 °C. Further, the Compatibility in data set [3] came out at 10.7 mL. The compound further had a Water content in data set [4] of 0.05%. The Chromaticity in data set [5] is listed as 30 Pt-Co. In data set [6], the Elastic modulus came out at 301.6 MPa, the Elongation at break amounted to 181.6% and the “Tensile modulus at 100%” value is 19.7 MPa. Besides, the Acid value in data set [7] stood at 0.05 KOH/g. For the same compound, in data set [8], the “Hardness/Shore D” value is 54 Shore D.
As for `CCOC(=O)C=C(CC(=O)OCC)C(=O)OCC` [Example 21, triethyl aconitate], in data set [1], the “Residual amounts of fat-soluble pigments” value is reported as 385 ppm and the “Residual amounts of water-soluble pigments” value stood at 328 ppm. Besides, the Tg in data set [2] came to 28.2 °C. Moreover, the Compatibility in data set [3] came out at 18.4 mL. The compound also showed a Water content in data set [4] of 0.02%. This compound had a Chromaticity in data set [5] of 30 Pt-Co. In data set [6], the Elastic modulus is 135.5 MPa, the Elongation at break is 243.6% and the “Tensile modulus at 100%” value is reported as 15.8 MPa. Also, in data set [7], the Acid value was 0.05 KOH/g. Moreover, the “Hardness/Shore D” value in data set [8] stood at 43 Shore D.
